Measurements from patent US20240190824A1, “INHIBITORS OF TREK (TWIK RELATED K+ CHANNELS) CHANNEL FUNCTION” (ONO PHARMACEUTICAL CO., LTD., priority 2019, published 2024).

Biological target: human TREK-1 (Homo sapiens (Human), UniProt O95069)
Experiment: TREK-1 Thallium (Tl+) flux assay
Assay type: cell-based
Details: CHO-K1 cells stably expressing human TREK-1

human TREK-1, sequence (O95069 whole entry): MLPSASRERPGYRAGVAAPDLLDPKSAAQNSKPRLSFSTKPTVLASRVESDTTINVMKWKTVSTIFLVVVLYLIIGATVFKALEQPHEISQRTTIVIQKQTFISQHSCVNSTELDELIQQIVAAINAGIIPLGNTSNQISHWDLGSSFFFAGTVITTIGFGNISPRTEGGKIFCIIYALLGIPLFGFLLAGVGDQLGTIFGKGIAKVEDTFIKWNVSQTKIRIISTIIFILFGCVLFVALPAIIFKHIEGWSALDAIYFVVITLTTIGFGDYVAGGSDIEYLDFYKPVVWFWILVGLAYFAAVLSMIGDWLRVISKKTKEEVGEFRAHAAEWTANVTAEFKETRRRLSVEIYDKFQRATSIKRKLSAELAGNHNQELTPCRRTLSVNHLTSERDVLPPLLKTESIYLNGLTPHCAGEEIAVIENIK

`Cc1cc(C#Cc2ccccc2)cnc1NC(=O)c1cc(-c2noc(C3CCOC3)n2)ccc1Cl` (stereo not drawn) [Compound 19, 2-chloro-N-[3-methyl-5-(2-phenylethynyl)-2-pyridyl]-5-(5-tetrahydrofuran-3-yl-1,2,4-oxadiazol-3-yl)benzamide] was tested. Which IC50 did it give?
Its IC50 is 50 nM.

With `Cc1cc(C#Cc2ccccc2)cnc1NC(=O)c1cc(OCC2CCOCC2)ccc1Cl` [Compound 20, 2-chloro-N-[3-methyl-5-(2-phenylethynyl)-2-pyridyl]-5-(tetrahydropyran-4-ylmethoxy)benzamide] as the compound, how does the IC50 read?
Its IC50 is 90 nM.

`Cc1cc(C#Cc2ccccc2)cnc1NC(=O)c1cc(OC[C@H]2COCCO2)ccc1Cl` [Compound 21, 2-chloro-5-[[(2R)-1,4-dioxan-2-yl]methoxy]-N-[3-methyl-5-(2-phenylethynyl)-2-pyridyl]benzamide] was tested. Which IC50 did it give?
Its IC50 is 110 nM.

Which IC50 does the source give for `Cc1cc(C#Cc2ccccc2)cnc1NC(=O)c1cc(OCC2COCCO2)ccc1Cl` (stereo not drawn) [Compound 22, 2-chloro-5-(1,4-dioxan-2-ylmethoxy)-N-[3-methyl-5-(2-phenylethynyl)-2-pyridyl]benzamide] here?
Its IC50 is 130 nM.

For `Cc1cc(C#Cc2ccccc2)cnc1NC(=O)c1cc(OC[C@@H]2COCCO2)ccc1Cl` [Compound 23, 2-chloro-5-[[(2S)-1,4-dioxan-2-yl]methoxy]-N-[3-methyl-5-(2-phenylethynyl)-2-pyridyl]benzamide], which IC50 is on record?
Its IC50 is 210 nM.

For `COCCOc1ccc(Cl)c(C(=O)Nc2ncc(C#Cc3ccccc3)cc2C)c1` [Compound 24, 2-chloro-5-(2-methoxyethoxy)-N-[3-methyl-5-(2-phenylethynyl)-2-pyridyl]benzamide], which IC50 is on record?
Its IC50 is 230 nM.

With `Cc1cc(OCc2ccccc2)ccc1NC(=O)c1cc(NC(=O)OC(C)(C)C)ccc1Cl` [Compound 25, tert-butyl (3-((4-(benzyloxy)-2-methylphenyl)carbamoyl)-4-chlorophenyl)carbamate] as the compound, how does the IC50 read?
The IC50 was 460 nM.

`Cc1cc(COc2ccccc2)ccc1NC(=O)c1cc(NC(=O)OC(C)(C)C)ccc1Cl` [Compound 26, tert-butyl (4-chloro-3-((2-methyl-4-(phenoxymethyl)phenyl)carbamoyl)phenyl)carbamate] was tested. Which IC50 did it give?
Its IC50 is 670 nM.

For `Cc1cc(C#Cc2ccccc2)cnc1NC(=O)c1cc(NC(=O)[C@H]2C[C@@H]2C)ccc1Cl` [Compound 27, 2-chloro-5-[[(1S,2S)-2-methylcyclopropanecarbonyl]amino]-N-[3-methyl-5-(2-phenylethynyl)-2-pyridyl]benzamide], which IC50 is on record?
Its IC50 is 100 nM.

Which IC50 does the source give for `Cc1cc(C#Cc2ccccc2)cnc1NC(=O)c1cc(NC(=O)OC(C)(C)C)ccc1Cl` [Compound 28, tert-butyl N-[4-chloro-3-[[3-methyl-5-(2-phenylethynyl)-2-pyridyl]carbamoyl]phenyl]carbamate] here?
The IC50 was 140 nM.

How did the IC50 turn out when `Cc1cc(C#Cc2ccccc2)cnc1NC(=O)c1cc(NC(=O)C2COCCO2)ccc1Cl` (stereo not drawn) [Compound 31, N-[4-chloro-3-[[3-methyl-5-(2-phenylethynyl)-2-pyridyl]carbamoyl]phenyl]-1,4-dioxane-2-carboxamide] was run?
Its IC50 is 260 nM.

How did the IC50 turn out when `Cc1cc(C#Cc2ccccc2)cnc1NC(=O)c1cc(NC(=O)C2CC(C)(O)C2)ccc1Cl` (stereo not drawn) [Compound 32, 2-chloro-5-[(3-hydroxy-3-methyl-cyclobutanecarbonyl)amino]-N-[3-methyl-5-(2-phenylethynyl)-2-pyridyl]benzamide] was run?
The IC50 was 280 nM.

`Cc1cc(C#Cc2ccccc2)cnc1NC(=O)c1nc(NC(=O)C2CC2C)ccc1Cl` (stereo not drawn) [Compound 33, 3-chloro-6-[(2-methylcyclopropanecarbonyl)amino]-N-[3-methyl-5-(2-phenylethynyl)-2-pyridyl]pyridine-2-carboxamide] was tested. Which IC50 did it give?
Its IC50 is 290 nM.

Which IC50 does the source give for `Cc1cc(C#Cc2ccccc2)cnc1NC(=O)c1c(Cl)ccc(NC(=O)OC(C)(C)C)c1F` [Compound 34, tert-butyl N-[4-chloro-2-fluoro-3-[[3-methyl-5-(2-phenylethynyl)-2-pyridyl]carbamoyl]phenyl]carbamate] here?
The IC50 was 360 nM.

For `Cc1cc(C#Cc2ccccc2)cnc1NC(=O)c1cc(NC(=O)OC(C)(C)C)cc(F)c1Cl` [Compound 35, tert-butyl N-[4-chloro-3-fluoro-5-[[3-methyl-5-(2-phenylethynyl)-2-pyridyl]carbamoyl]phenyl]carbamate], which IC50 is on record?
Its IC50 is 400 nM.
